According to the supplement of paper PMC11208160:

Experiment: recombinant barcode read abundance after kanamycin selection (control-corrected) (log10(CPM+1)); higher = more efficient recombination; sequences stand for … in AGTGCAGAGAAAATCGGCCAGTTTTCTCTGCCTGCAGTCCGCATGCCGT…AGATTTATGCAGCGGACTGCCTTTCTCCCAAAGTGATAAACCGGACAGTATCATGGACCGGTTTTCCCGGTAATCCGTATTTGCAAGGTTGGTTTCACT; site = the 11-nt target
Procedure, shortened: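 Each value is log10(CPM+1). It describes recombination efficiency, taken as averaged, control-corrected counts per million of barcodes at recombinant junctions. The pooled E. coli library paired targets with IS621 bridge RNA target-binding loops, was co-electroporated with a donor plasmid, and was plated twice on chloramphenicol/ampicillin LB agar (control) and twice on chloramphenicol/ampicillin/kanamycin containing 0.1 mM IPTG.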
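Further: IS621 recombinase and bridge RNA in Escherichia coli cells.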

| Sequence | recombinant barcode read abundance (log10) |
| --- | --- |
| TAGAAGACTTGGGTTCTAACCTGTTGCTG (site TAGAAGACTGA) | 0.315 |
| TAGAAGACTTGGGTTCTAACCTGTTGCTG (site TAGAAGACTTA) | 0.639 |
| TAGAAGCCTTGGGTTCTAACCTGTTGCTA (site TAGAAGCCTTA) | 0.463 |
| TAGAAGCCTTGGGTTCTAACCTGTTGCTA (site TAGAAGGCTTA) | 0.21 |
| TAGAAGGCTTGGGTTCTAACCTGTTGCAT (site TAGAAGGCTAA) | 0.162 |
| TAGAAGGCTTGGGTTCTAACCTGTTGCAT (site TAGAAGGCTAC) | 0.0752 |
| TAGAAGGCTTGGGTTCTAACCTGTTGCAT (site TAGAAGGCTAG) | 0.161 |
| TAGAAGGCTTGGGTTCTAACCTGTTGCAT (site TAGAAGGCTAT) | 1.97 |
| TAGAATCCTTGGGTTCTAACCTGTTGCAT (site TAGAATCCTAT) | 0.104 |
| TAGAATCCTTGGGTTCTAACCTGTTGCAT (site TAGAATCCTCT) | 0.102 |
| TAGAATCCTTGGGTTCTAACCTGTTGCAT (site TAGAATCCTGT) | 0.0579 |
| TAGAATCCTTGGGTTCTAACCTGTTGCAT (site TAGAATCCTTT) | 0.241 |
| TAGAATGCTTGGGTTCTAACCTGTTGCCT (site TAGAATGCTAA) | 0.133 |
| TAGAATGCTTGGGTTCTAACCTGTTGCCT (site TAGAATGCTAG) | 0.921 |
| TAGACATCTTGGGTTCTAACCTGTTGCTC (site TAGACATCTGA) | 0.323 |
| TAGACATCTTGGGTTCTAACCTGTTGCTC (site TAGCCATCTGA) | 0.0147 |
| TAGACATCTTGGGTTCTAACCTGTTGCTC (site TAGGCATCTGA) | 0.0149 |
| TAGACATCTTGGGTTCTAACCTGTTGCTC (site TAGTCATCTGA) | 0.016 |
| TAGACCTCTTGGGTTCTAACCTGTTGCCT (site AAGACCTCTAG) | 0.113 |
| TAGACCTCTTGGGTTCTAACCTGTTGCCT (site TAGACCTCTAG) | 1.86 |

| Sequence | recombinant barcode read abundance (log10) |
| --- | --- |
| TAGACTACTTGGGTTCTAACCTGTTGCTT (site TAGACTACTAA) | 0.0704 |
| TAGACTACTTGGGTTCTAACCTGTTGCTT (site TAGACTACTCA) | 0.0933 |
| TAGACTACTTGGGTTCTAACCTGTTGCTT (site TAGACTACTGA) | 0.0122 |
| TAGACTACTTGGGTTCTAACCTGTTGCTT (site TAGACTACTTA) | 0.137 |
| TAGACTGCTTGGGTTCTAACCTGTTGCCT (site TAGACTGCTAG) | 1.04 |
| TAGACTGCTTGGGTTCTAACCTGTTGCCT (site TAGCCTGCTAG) | 0.224 |
| TAGACTGCTTGGGTTCTAACCTGTTGCCT (site TAGGCTGCTAG) | 0.107 |
| TAGACTGCTTGGGTTCTAACCTGTTGCCT (site TAGTCTGCTAG) | 0.451 |
| TAGAGGACTTGGGTTCTAACCTGTTGCAG (site TACAGGACTCT) | 0.0593 |
| TAGAGGACTTGGGTTCTAACCTGTTGCAG (site TAGAGGACTCT) | 2.23 |
| TAGATCGCTTGGGTTCTAACCTGTTGCAG (site TAGATCGCTCT) | 1.44 |
| TAGATCGCTTGGGTTCTAACCTGTTGCAG (site TAGGTCGCTAT) | 0.266 |
| TAGCACACTTGGGTTCTAACCTGTTGCCG (site TAGCACACTCG) | 1.51 |
| TAGCACACTTGGGTTCTAACCTGTTGCCG (site TCGCACACTCA) | 0.0962 |
| TAGCACCCTTGGGTTCTAACCTGTTGCCC (site TAGCACCCTAG) | 0.681 |
| TAGCACCCTTGGGTTCTAACCTGTTGCCC (site TAGCACCCTCG) | 0.642 |
| TAGCACCCTTGGGTTCTAACCTGTTGCCC (site TAGCACCCTGG) | 1.69 |
| TAGCACCCTTGGGTTCTAACCTGTTGCCC (site TAGCACCCTTG) | 0.0312 |
| TAGCAGACTTGGGTTCTAACCTGTTGCCT (site TAGCAGACTAG) | 1.45 |
| TAGCAGACTTGGGTTCTAACCTGTTGCCT (site TAGCCGACTAG) | 0.034 |

| Sequence | recombinant barcode read abundance (log10) |
| --- | --- |
| TAGCAGACTTGGGTTCTAACCTGTTGCCT (site TAGCGGACTAG) | 0.0243 |
| TAGCAGACTTGGGTTCTAACCTGTTGCCT (site TAGCTGACTAG) | 0.0224 |
| TAGCATACTTGGGTTCTAACCTGTTGCCG (site TAGCATACTAG) | 0.271 |
| TAGCATACTTGGGTTCTAACCTGTTGCCG (site TAGCATACTCG) | 0.861 |
| TAGCATACTTGGGTTCTAACCTGTTGCCG (site TAGCATACTGG) | 0.06 |
| TAGCATACTTGGGTTCTAACCTGTTGCCG (site TAGCATACTTG) | 0.198 |
| TAGCCACCTTGGGTTCTAACCTGTTGCCT (site AAGCCACCTAG) | 0.151 |
| TAGCCACCTTGGGTTCTAACCTGTTGCCT (site CAGCCACCTAG) | 0.917 |
| TAGCCACCTTGGGTTCTAACCTGTTGCCT (site GAGCCACCTAG) | 0.0875 |
| TAGCCACCTTGGGTTCTAACCTGTTGCCT (site TAGCCACCTAG) | 1.94 |
| TAGCCGACTTGGGTTCTAACCTGTTGCCT (site TAGCAGACTAG) | 0.181 |
| TAGCCGACTTGGGTTCTAACCTGTTGCCT (site TAGCCGACTAG) | 1.59 |
| TAGCCGACTTGGGTTCTAACCTGTTGCCT (site TAGCGGACTAG) | 0.251 |
| TAGCCGACTTGGGTTCTAACCTGTTGCCT (site TAGCTGACTAG) | 0.0182 |
| TAGCCGACTTGGGTTCTAACCTGTTGCTT (site TAGACGACTAA) | 0.131 |
| TAGCCGACTTGGGTTCTAACCTGTTGCTT (site TAGCCGACTAA) | 0.999 |
| TAGCCGACTTGGGTTCTAACCTGTTGCTT (site TAGGCGACTAA) | 0.309 |
| TAGCCGACTTGGGTTCTAACCTGTTGCTT (site TAGTCGACTAA) | 0.242 |
| TAGCCGTCTTGGGTTCTAACCTGTTGCAC (site TAGACGACTGT) | 0.0911 |
